Results taken from patent US20260207537A1, “PHARMACEUTICAL COMPOSITION FOR PREVENTION AND TREATMENT OF AORTIC ANEURYSM, AND PROCESSED FOOD” (priority 2020, published 2026).

Experiments:
[1] = system: abdominal aortic aneurysm; assay: Regression of established abdominal aortic aneurysm, administration from Day 7 (Example 3); format: in vivo, rat
Description: SD-male rats of 4 weeks old (70 to 90 G) were used. The rats were subjected to the above-described abdominal aortic aneurysm induction treatment. On Day 7, the abdomen of the rat was opened to confirm the occurrence of an abdominal aortic aneurysm, the vessel diameter was measured, and then the abdomen was closed. Subsequently, a control group was fed normal feed and water, while a tricaprin administration group was fed tricaprin in an amount of 1,145 MG/KG/day in addition to the normal feed.
Seven days after the abdominal closure (Day 14 after the abdominal aortic aneurysm induction treatment), the abdomen was opened again, and the blood vessel diameter was measured. Some rats of the control group were not subjected to laparotomy on Day 14 and continued to be fed normal feed and water. The amount of the neutral fats in the blood vessel, the amount of lipids in the blood, the blood glucose level, and the body weight were measured from the day when the abdominal aortic aneurysm induction treatment was performed.
FIGS. 3(A), 3(B), and 3(C) show the control group (depicted as “CONTROL”), and FIGS. 3(D), 3(E), and 3(F) show the tricaprin administration group (depicted as “C10-TG”).
Photographs under “DAY 0” are photographs taken when the abdominal aortic aneurysm induction treatment was performed (FIG. 3(A) and FIG. 3(D)). […]

[2] = system: abdominal aortic aneurysm; assay: Abdominal aortic aneurysm induction model, preventive forced administration (Examples 1 and 2); format: in vivo, rat; details: for Rupture rate of abdominal aortic aneurysm: among rats with observed aneurysm, control group 28.6; for Rupture confirmed (abdominal aortic aneurysm) / Rupture not confirmed (abdominal aortic aneurysm): number of rats among rats with observed aneurysm; for Survival rate: Example 2, FIG. 1; for Diameter of the aorta in the abdominal aortic aneurysm induction part: Example 2, FIG. 2, after completion of the test, control group about 4 MM
Description: SD-male rats of 4 weeks old (70 to 90 G) were used. Eighteen rats and eight rats were prepared as a control group and a medium chain fatty acid administration group, respectively.
Upon arrival, all rats were preliminarily fed normal feed without additional supplements for one week. Then, the medium chain fatty acid administration group was fed normal feed and forcibly administered with high-content neutral fats (decanoic acid occupied 98% of constituent fatty acids) in an amount of 1,145 MG/KG body-weight/day. The control group was fed normal feed and forcibly administered with water in an amount of 1,145 MG/KG body-weight/day.
In this test, the medium chain fatty acid was fed in the form of tricaprin. Tricaprin is a substance in which decanoic acid (C10), a linear saturated fatty acid having 10 carbon atoms, is bonded to glycerol. Thus, the high-content neutral fats are medium chain fatty acids of the present invention.
From the second week after the arrival, all rats were fed high-fat feed. Then, the medium chain fatty acid administration group was forcibly administered with the high-content neutral fats in an amount of 1,145 MG/KG body-weight/day in addition to the high-fat feed. Furthermore, the control group was forcibly administered with water in an amount of 1,145 MG/KG body-weight/day in addition to the high-fat feed.
Three weeks after the arrival, an abdominal aortic aneurysm induction treatment was performed. In the abdominal aortic aneurysm induction treatment, a catheter is inserted in the rat abdominal aorta and the inserted catheter is ligated with the abdominal aorta. The treatment was performed according to the method disclosed in PTL 3.
After that, for the next four weeks, the control group had been fed the high-fat feed and forcibly administered with water in an amount of 1,145 MG/KG body-weight/day. Furthermore, the medium chain fatty acid administration group had been fed the high-fat feed and forcibly administered with the high-content neutral fats. Then, four weeks after the abdominal aortic aneurysm induction treatment, the rats were dissected.
Note that the abdominal aortic aneurysm was determined to have occurred if the blood vessel at the site where the abdominal aortic aneurysm induction treatment was performed dilated to twice or more its original thickness.
Next, test results obtained by using tricaprin (an ester of three decanoic acids and glycerol) and tricaprylin (an ester of three octanoic acids of C8 and glycerol) as the medium chain fatty acid is shown. The animal model preparation method is the same as that in Example 1. A group in which tricaprin (C10) was given is referred to as a tricaprin administration group and a group in which tricaprylin (C8) was given is referred to as a tricaprylin administration group.
Twenty-three, eleven, and eighteen model animals were prepared as a control group, the tricaprylin administration group, and the tricaprin administration group, respectively.

[3] = Example 2, number of rats (tricaprylin 11, tricaprin 18 animals)
[4] = Example 2, number of rats (tricaprylin 11, tricaprin 18 animals), dilated to twice or more original thickness

Structure (SMILES)	Maximum aneurysm diameter ([1]; Day 14, 1,145 MG/KG/day from Day 7, 2.79 MM on Day 7 before administration, control 2.81 to 3.59 MM) [MM]	Weight gain rate versus control group ([1]; Example 3, measured from the day of induction treatment)	Frequency of occurrence of abdominal aortic aneurysm ([2]; Example 1, 1,145 MG/KG body-weight/day, control group 38.9) [%]	Rupture rate of abdominal aortic aneurysm ([2]; Example 1) [%]	Rupture confirmed (abdominal aortic aneurysm) ([2]; Example 1)	Rupture not confirmed (abdominal aortic aneurysm) ([2]; Example 1)	Occurrence not confirmed (abdominal aortic aneurysm) ([2]; Example 1, number of rats of 8, 1,145 MG/KG body-weight/day forced administration, high-fat feed, dissected four weeks after induction)	Occurrence confirmed (abdominal aortic aneurysm) ([2]; Example 1, number of rats of 8, vessel dilated to twice or more its original thickness, 1,145 MG/KG body-weight/day)	Survival rate ([2]; during the test period) [%]	Diameter of the aorta in the abdominal aortic aneurysm induction part [2]	Rupture rate of abdominal aortic aneurysm ([2]; Example 2) [%]	Frequency of occurrence of abdominal aortic aneurysm ([2]; Example 2, control group 30.4) [%]	Occurrence not confirmed (abdominal aortic aneurysm) [2, 3]	Occurrence confirmed (abdominal aortic aneurysm) [2, 4]	Rupture confirmed (abdominal aortic aneurysm) ([2]; Example 2)	Rupture not confirmed (abdominal aortic aneurysm) ([2]; Example 2)	Survival rate ([2]; until Day 26 after induction treatment, control declined on Day 17) [%]
CCCCCCCCCC(=O)OCC(COC(=O)CCCCCCCCC)OC(=O)CCCCCCCCC [Tricaprin, tricaprin]	1.89	no difference	12.5	0	0	1	7	1	100	about 2.2 MM	0	5.6	17	1	0	1	–
CCCCCCCC(=O)OCC(COC(=O)CCCCCCC)OC(=O)CCCCCCC [Tricaprylin, tricaprylin]	–	–	–	–	–	–	–	–	–	about 3.5 MM	33.3	27.3	8	3	1	2	100
